Earlier results as cited in article PMC9851200, “Multiparameter phenotypic screening for endogenous TFEB and TFE3 translocation identifies novel chemical series modulating lysosome function” (Autophagy, 2022).

Assays:
Parameters in all cases: method as in original PKIS2 published data
[1] = target: kinases (KINOMEscan panel) (Homo sapiens, UniProt P22694); settings: PRKACB; Published KINOMEscan; ref original PKIS2 published data; cited from earlier work
[2] = target: kinases (KINOMEscan panel) (Homo sapiens, UniProt P31751); settings: Published KINOMEscan; ref original PKIS2 published data; cited from earlier work
[3] = target: kinases (KINOMEscan panel) (Homo sapiens, UniProt P35590); settings: TIE1; Published KINOMEscan; ref original PKIS2 published data; cited from earlier work
[4] = target: kinases (KINOMEscan panel) (Homo sapiens, UniProt P49759); settings: kinase CLK1; Published KINOMEscan; ref original PKIS2 published data; cited from earlier work
[5] = target: kinases (KINOMEscan panel) (Homo sapiens, UniProt P51617); settings: kinase IRAK1; Published KINOMEscan; ref original PKIS2 published data; cited from earlier work
[6] = target: kinases (KINOMEscan panel) (Homo sapiens, UniProt Q15746); settings: kinase MYLK; Published KINOMEscan; ref original PKIS2 published data; cited from earlier work
[7] = target: kinases (KINOMEscan panel) (Homo sapiens, UniProt Q9H4B4); settings: kinase PLK3; Published KINOMEscan; ref original PKIS2 published data; cited from earlier work
[8] = target: kinases (KINOMEscan panel) (Homo sapiens, UniProt Q9HCP0); settings: kinase CSNK1G1; Published KINOMEscan; ref original PKIS2 published data; cited from earlier work
[9] = target: T1, kinases (KINOMEscan panel) (Homo sapiens, UniProt Q9NRP7); settings: STK36; Published KINOMEscan; ref original PKIS2 published data; cited from earlier work
T1 sequence (Q9NRP7 1-1315): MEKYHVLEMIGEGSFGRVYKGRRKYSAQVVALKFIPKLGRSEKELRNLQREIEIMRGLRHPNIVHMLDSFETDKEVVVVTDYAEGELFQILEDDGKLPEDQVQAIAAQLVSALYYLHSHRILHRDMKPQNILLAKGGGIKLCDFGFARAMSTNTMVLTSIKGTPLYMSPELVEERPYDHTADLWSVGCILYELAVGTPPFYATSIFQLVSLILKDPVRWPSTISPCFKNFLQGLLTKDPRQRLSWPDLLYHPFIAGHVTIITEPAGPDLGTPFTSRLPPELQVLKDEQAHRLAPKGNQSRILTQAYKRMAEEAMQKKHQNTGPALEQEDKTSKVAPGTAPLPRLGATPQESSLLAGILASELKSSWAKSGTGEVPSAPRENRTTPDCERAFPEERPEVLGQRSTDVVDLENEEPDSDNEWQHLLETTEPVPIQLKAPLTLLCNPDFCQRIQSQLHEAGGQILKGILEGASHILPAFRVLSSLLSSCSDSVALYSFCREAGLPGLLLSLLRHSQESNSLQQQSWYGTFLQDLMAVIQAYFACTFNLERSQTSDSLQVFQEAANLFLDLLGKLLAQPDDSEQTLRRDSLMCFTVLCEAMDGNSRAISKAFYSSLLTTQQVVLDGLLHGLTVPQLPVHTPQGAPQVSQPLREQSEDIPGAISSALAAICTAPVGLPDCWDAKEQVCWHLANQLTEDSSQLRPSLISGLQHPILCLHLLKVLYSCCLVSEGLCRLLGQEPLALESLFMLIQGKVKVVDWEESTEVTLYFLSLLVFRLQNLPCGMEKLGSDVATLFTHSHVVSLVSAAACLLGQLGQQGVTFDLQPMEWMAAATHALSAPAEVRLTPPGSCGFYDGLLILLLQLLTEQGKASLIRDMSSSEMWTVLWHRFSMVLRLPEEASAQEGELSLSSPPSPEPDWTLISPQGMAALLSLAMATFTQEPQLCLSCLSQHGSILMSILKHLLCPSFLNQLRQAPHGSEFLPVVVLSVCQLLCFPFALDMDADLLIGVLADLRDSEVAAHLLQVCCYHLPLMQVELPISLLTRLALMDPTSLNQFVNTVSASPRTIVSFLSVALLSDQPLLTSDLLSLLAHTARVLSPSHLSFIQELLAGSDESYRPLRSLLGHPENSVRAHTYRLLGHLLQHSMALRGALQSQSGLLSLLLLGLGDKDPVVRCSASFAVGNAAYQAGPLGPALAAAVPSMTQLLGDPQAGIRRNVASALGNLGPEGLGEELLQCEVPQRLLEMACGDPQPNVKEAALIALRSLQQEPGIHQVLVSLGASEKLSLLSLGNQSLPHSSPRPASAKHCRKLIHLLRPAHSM

[10] = target: kinases (KINOMEscan panel) (Homo sapiens, UniProt Q9Y6M4); settings: CSNK1G3; Published KINOMEscan; ref original PKIS2 published data; cited from earlier work
Chain of kinases (KINOMEscan panel) (Homo sapiens, UniProt Q9Y6M4) (Q9Y6M4 whole entry): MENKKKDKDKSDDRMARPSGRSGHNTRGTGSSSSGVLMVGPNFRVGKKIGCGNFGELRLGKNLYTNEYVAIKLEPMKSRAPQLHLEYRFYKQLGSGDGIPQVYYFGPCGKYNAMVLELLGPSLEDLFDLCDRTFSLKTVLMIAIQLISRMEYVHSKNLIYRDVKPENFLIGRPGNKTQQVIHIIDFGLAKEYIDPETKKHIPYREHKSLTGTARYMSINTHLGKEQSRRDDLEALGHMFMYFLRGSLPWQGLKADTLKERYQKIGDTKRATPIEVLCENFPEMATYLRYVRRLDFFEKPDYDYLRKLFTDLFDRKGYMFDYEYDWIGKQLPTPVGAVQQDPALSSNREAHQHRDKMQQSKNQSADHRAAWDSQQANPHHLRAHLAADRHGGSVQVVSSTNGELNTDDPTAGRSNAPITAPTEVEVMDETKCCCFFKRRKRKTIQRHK

Chain of kinases (KINOMEscan panel) (Homo sapiens, UniProt P31751) (P31751 whole entry): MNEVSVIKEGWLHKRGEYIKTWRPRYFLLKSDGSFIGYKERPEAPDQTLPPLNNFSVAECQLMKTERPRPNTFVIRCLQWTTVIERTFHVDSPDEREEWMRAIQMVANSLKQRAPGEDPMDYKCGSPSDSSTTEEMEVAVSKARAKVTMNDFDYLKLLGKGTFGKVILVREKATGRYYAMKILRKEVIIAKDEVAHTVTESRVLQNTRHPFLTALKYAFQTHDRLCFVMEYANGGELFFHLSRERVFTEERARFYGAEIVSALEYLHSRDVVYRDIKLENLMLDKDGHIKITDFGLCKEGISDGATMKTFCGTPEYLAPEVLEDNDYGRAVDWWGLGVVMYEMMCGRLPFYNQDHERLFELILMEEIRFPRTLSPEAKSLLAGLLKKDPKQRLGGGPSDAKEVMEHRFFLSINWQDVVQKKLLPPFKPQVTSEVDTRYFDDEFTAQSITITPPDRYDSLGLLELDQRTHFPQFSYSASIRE
Chain of kinases (KINOMEscan panel) (Homo sapiens, UniProt P35590) (P35590 22-1138): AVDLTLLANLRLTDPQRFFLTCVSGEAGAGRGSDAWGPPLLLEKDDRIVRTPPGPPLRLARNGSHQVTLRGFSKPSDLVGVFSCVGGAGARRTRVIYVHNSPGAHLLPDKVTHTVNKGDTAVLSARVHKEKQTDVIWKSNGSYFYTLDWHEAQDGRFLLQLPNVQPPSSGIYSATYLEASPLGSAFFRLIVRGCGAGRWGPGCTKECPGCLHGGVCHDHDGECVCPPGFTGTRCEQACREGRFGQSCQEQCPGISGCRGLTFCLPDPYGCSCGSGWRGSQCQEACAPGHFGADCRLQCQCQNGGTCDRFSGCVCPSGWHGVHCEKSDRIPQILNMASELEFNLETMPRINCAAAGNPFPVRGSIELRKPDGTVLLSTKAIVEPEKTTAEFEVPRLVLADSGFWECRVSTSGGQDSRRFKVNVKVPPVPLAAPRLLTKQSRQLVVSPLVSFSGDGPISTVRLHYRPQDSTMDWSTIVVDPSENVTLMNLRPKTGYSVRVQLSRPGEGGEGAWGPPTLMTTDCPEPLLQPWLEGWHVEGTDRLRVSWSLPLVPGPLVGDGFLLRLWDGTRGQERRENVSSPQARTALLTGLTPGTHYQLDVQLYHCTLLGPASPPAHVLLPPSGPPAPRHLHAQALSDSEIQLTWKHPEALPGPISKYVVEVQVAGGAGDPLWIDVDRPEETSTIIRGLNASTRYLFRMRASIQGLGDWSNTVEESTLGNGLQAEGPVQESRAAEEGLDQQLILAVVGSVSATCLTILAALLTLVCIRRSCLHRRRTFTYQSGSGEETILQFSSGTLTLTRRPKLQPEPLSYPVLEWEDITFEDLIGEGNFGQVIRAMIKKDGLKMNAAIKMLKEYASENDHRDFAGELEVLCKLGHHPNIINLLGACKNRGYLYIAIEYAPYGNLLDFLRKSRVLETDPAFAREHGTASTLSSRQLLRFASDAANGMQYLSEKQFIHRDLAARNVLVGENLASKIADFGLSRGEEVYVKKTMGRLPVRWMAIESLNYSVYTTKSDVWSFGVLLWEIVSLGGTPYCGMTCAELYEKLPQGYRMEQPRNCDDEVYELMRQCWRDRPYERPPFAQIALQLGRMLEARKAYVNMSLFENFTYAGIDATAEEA
Chain of kinases (KINOMEscan panel) (Homo sapiens, UniProt Q9H4B4) (Q9H4B4 whole entry): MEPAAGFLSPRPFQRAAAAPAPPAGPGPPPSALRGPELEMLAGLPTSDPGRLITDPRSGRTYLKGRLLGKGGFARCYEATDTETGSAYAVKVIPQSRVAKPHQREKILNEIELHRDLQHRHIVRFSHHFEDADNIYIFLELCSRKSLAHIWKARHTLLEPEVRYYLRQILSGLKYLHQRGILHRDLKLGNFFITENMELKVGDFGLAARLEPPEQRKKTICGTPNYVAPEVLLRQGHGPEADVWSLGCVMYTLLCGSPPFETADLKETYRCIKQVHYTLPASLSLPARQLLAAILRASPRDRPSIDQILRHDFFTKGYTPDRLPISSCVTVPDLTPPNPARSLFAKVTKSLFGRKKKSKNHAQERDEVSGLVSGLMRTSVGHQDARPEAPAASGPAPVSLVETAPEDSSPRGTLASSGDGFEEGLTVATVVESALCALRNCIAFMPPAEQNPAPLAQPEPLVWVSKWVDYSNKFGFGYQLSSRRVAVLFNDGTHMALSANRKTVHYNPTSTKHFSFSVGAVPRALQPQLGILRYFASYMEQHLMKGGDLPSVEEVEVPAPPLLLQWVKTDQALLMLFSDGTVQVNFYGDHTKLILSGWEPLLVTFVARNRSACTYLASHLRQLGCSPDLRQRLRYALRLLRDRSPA
Chain of kinases (KINOMEscan panel) (Homo sapiens, UniProt Q9HCP0) (Q9HCP0 whole entry): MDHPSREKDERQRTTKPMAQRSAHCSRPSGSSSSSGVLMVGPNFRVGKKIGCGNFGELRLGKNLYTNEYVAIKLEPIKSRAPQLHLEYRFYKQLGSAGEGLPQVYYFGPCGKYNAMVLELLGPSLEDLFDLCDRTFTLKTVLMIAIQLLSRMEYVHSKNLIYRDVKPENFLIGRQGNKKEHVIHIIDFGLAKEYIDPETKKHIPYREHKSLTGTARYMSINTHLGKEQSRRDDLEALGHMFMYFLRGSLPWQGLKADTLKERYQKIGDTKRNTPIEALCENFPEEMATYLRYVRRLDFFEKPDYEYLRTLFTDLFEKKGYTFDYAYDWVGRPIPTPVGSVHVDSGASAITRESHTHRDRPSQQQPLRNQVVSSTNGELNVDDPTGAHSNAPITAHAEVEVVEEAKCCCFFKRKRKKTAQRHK
Chain of kinases (KINOMEscan panel) (Homo sapiens, UniProt P51617) (P51617 whole entry): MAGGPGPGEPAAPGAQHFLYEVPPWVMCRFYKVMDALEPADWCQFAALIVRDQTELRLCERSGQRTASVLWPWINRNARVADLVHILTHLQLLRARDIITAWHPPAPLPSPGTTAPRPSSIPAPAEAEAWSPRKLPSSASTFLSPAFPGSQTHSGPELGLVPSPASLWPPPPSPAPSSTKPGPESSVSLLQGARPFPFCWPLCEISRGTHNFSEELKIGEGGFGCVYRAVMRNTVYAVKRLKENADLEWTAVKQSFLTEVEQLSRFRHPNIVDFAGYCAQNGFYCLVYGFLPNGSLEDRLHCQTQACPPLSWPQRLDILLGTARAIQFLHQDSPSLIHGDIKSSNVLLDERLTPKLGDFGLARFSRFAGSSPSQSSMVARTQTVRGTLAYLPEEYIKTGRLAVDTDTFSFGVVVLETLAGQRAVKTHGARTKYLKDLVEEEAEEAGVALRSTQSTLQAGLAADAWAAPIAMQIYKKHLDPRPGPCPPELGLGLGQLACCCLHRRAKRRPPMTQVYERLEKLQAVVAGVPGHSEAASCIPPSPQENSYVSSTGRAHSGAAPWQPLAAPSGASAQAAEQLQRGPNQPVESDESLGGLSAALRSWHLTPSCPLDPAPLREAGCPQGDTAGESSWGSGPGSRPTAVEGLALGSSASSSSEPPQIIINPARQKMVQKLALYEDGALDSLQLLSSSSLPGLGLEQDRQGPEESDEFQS
Chain of kinases (KINOMEscan panel) (Homo sapiens, UniProt P49759) (P49759 whole entry): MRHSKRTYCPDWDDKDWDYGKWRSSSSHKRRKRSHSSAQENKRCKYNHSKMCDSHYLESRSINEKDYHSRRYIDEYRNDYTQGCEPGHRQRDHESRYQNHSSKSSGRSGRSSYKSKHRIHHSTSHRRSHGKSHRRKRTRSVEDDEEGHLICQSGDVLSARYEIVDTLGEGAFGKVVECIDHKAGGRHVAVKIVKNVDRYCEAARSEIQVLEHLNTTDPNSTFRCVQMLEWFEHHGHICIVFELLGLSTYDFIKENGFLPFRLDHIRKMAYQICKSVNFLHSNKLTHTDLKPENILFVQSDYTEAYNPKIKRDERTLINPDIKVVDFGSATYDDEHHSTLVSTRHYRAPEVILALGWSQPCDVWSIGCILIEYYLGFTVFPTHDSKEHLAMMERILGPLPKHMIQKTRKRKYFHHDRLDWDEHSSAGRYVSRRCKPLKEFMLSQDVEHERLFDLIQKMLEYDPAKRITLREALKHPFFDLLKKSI

**Q.** Which “KINOMEscan PRKACB” value [1] does the source give for `Cc1cccc(-c2nc(Nc3ccncc3)c3ccccc3n2)n1` [NK215] here?
**A.** Its value is 30.

**Q.** What about the “KINOMEscan AKT2” value [2] of the same compound?
**A.** The value was 0.

**Q.** What about the “KINOMEscan TIE1” value [3] of the same compound?
**A.** The value was 20.

**Q.** And the “KINOMEscan CLK1” value [4]?
**A.** The value was 10.

**Q.** What about the “KINOMEscan IRAK1” value [5] of the same compound?
**A.** Its value is 0.

**Q.** What about the “KINOMEscan MYLK” value [6] of the same compound?
**A.** The value was 12.

**Q.** And the “KINOMEscan PLK3” value [7]?
**A.** Its value is 0.

**Q.** And the “KINOMEscan CSNK1G1” value [8]?
**A.** The value was 0.

**Q.** And the “KINOMEscan STK36” value [9]?
**A.** The value was 5.

**Q.** And the “KINOMEscan CSNK1G3” value [10]?
**A.** The value was 12.
